Experimental data published in patent publication US10889628B2, “Optogenetic inhibition of overactive neuronal activity” (Emory University, priority 2013, dated 2021).

How the values were obtained:
neuron = test: Inhibition of evoked spikes in a neuron expressing eNpHR3.0-Nanolantern; type: cell-based; conditions: CTZ added
cortical neuron cultures = test: Inhibition of evoked activity (action potential trains evoked by current injection) in cortical neuron cultures; type: cell-based; conditions: FIG. 5
Procedure: Trains of action potentials were evoked by 30 pA current injections.
Simultaneous patch clamp studies are conducted to determine cellular responses in (1) cells expressing both opsin and luciferase (i.e. both components in cis) and (2) cells expressing […] (i.e. both components in trans). As an alternative to co-infection, one can also deliver luciferase and inhibitory opsin together as a fusion protein. Various molecular strategies can also be employed (such as adding dimerizing or transmembrane domains) to facilitate co-localization of the luciferase and inhibitory opsin to the cell membrane.

Compound	luminescence signal during inhibition of evoked activity (neuron; FIG. 8 (top))	evoked action potentials after CTZ (neuron; sub-threshold depolarizing current injection, FIG. 8)	effect on firing rate in control (uninfected) neurons (cortical neuron cultures)
eNpHR3.0-Nanolantern: Fusion cassette of enhanced halorhodopsin eNpHR3.0 and Nanolantern, amino acid sequence SEQ ID NO: 11	increase in luminescence signal	completely attenuate evoked action potentials	–
Oc1ccc(Cc2nc3c(Cc4ccccc4)nc(-c4ccc(O)cc4)cn3c2O)cc1 [CTZ, Coelenterazine, reference compound]	–	–	did not have any significant effect
